# From paper PMC3391414 (Journal of Agricultural and Food Chemistry, 2011)
# Several values for one entry are separate records, joined by “and”; a condition that tells them apart may be missing. Equal values may be shown once. Entries after “also recorded” stand apart in the source; their conditions may differ. Read-outs that look alike come from different tables or passages of the source.
# Experiments:
# [1] = molecular target: T1, UGT1A3 (Homo sapiens, UniProt P35503); experiment: Glucuronidation by recombinant human UGT1A3
# T1 sequence (P35503 29-534): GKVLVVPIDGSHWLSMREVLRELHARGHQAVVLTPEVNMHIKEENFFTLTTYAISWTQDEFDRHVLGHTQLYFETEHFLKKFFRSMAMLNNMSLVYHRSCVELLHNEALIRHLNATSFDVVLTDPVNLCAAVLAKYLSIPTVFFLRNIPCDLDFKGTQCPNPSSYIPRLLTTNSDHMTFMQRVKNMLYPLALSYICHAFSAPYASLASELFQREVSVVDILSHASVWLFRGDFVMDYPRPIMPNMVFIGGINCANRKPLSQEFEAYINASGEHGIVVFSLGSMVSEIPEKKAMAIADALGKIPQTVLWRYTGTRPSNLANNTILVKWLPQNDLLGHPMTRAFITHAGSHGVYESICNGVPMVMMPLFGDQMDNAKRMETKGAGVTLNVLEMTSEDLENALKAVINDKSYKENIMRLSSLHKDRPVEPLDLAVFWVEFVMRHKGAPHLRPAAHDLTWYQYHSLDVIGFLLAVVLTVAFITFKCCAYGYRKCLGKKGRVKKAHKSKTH
# [2] = molecular target: T2, UGT1A8 (Homo sapiens, UniProt Q9HAW9); experiment: Glucuronidation by recombinant human UGT1A8
# T2 sequence (Q9HAW9 26-530): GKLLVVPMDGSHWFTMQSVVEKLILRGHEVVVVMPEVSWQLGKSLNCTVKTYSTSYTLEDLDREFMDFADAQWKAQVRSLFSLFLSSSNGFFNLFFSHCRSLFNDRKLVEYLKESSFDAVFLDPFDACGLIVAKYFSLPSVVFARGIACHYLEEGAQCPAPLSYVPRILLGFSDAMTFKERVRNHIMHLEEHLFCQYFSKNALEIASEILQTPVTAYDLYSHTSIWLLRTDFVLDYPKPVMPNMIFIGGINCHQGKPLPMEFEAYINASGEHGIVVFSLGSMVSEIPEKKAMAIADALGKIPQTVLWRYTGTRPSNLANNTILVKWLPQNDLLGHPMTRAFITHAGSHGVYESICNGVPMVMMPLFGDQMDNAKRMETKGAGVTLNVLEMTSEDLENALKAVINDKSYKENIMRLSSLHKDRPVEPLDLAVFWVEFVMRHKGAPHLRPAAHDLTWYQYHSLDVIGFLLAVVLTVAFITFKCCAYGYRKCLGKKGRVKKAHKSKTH
# [3] = molecular target: T3, UGT1A9 (Homo sapiens, UniProt O60656); experiment: Glucuronidation by recombinant human UGT1A9
# T3 sequence (O60656 26-530): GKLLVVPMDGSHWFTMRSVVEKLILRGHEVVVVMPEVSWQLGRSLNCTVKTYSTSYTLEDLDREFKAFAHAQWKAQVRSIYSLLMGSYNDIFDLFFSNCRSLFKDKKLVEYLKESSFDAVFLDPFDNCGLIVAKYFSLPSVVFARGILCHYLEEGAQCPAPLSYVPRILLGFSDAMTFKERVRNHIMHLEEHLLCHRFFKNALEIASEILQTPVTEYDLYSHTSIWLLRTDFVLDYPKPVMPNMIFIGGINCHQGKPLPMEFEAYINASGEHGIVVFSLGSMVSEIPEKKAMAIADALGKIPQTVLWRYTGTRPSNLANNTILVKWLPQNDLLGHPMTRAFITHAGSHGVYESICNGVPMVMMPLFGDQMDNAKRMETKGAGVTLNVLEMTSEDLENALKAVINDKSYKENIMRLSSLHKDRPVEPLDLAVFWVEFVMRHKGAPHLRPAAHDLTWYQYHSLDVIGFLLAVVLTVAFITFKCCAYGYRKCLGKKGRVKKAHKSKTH
# [4] = molecular target: T4, UGT1A10 (Homo sapiens, UniProt Q9HAW8); experiment: Glucuronidation by recombinant human UGT1A10; conditions: UGT1A10, substrate 10 μM
# T4 sequence (Q9HAW8 26-530): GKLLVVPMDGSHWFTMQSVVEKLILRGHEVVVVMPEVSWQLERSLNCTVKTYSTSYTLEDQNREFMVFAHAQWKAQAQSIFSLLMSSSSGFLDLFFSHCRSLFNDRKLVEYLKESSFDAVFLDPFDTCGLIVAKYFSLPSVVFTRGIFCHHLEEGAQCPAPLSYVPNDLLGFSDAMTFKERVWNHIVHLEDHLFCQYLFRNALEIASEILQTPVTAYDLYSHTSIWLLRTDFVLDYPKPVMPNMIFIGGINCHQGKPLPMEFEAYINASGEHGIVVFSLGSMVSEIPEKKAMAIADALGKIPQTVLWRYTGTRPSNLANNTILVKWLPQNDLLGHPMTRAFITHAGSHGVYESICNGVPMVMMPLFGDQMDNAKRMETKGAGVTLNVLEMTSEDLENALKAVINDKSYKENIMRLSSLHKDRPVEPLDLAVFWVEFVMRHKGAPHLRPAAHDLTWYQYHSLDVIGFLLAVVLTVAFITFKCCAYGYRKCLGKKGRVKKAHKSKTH
# [5] = tested on: UGT 1A1, 1A3, 1A6, 1A7, 1A8, 1A9, 1A10 and 2B7; experiment: Glucuronidation by the panel of 8 recombinant human UGT isoforms; conditions: substrate 10 μM
# [6] = molecular target: T4, UGT1A10; conditions: 10 μM, pH 7.4
structure (smiles),measurement,setting,value
"O=c1c(O)c(-c2ccc(O)cc2)oc2cc(O)cc(O)c12 [5,7,4'THFnol, 3,5,7,4’-tetrahydroxyflavone]",Degree of regiospecificity (major glucuronide in bracket),"[1]; UGT1A3, substrate 2.5 μM","No (3-O, 7-O)"
same,Degree of regiospecificity (major glucuronide in bracket),"[1]; UGT1A3, substrate 10 μM","No (3-O, 7-O)"
same,Hydroxyl positions glucuronidated,"[1]; UGT1A3, substrate 10 μM","glucuronidated 3-O, 7-O and 4’-O"
same,Degree of regiospecificity (major glucuronide in bracket),"[1]; UGT1A3, substrate 10 μM, listed as 5,7,4’THFnol",no regiospecific preference between 3-O and 7-O; also recorded: did not show dominant regiospecificity for 7-O position
same,Hydroxyl positions glucuronidated,"[2]; UGT1A8, substrate 10 μM","glucuronidated 3-O, 7-O and 4’-O"
same,Degree of regiospecificity (3-O vs 7-O),"[2]; UGT1A8, substrate 35 μM",weak regiospecificity and 7-O was the preferred position
same,Degree of regiospecificity (major glucuronide in bracket),"[3]; UGT1A9, substrate 2.5 μM",Moderate (3-O)
same,Degree of regiospecificity (major glucuronide in bracket),"[3]; UGT1A9, substrate 2.5 μM, listed as 5,7,4’THFnol",moderate regiospecificity for glucuronidation of 3-O position
same,Degree of regiospecificity (major glucuronide in bracket),"[3]; UGT1A9, substrate 10 μM",Weak (3-O)
same,Hydroxyl positions glucuronidated,"[3]; UGT1A9, substrate 10 μM",glucuronidated only 3-O and 7-O positions
same,Degree of regiospecificity (major glucuronide in bracket),"[3]; UGT1A9, substrate 10 μM, listed as 5,7,4’THFnol",only weakly preferred 3-O position; also recorded: weak regiospecificity for glucuronidation of 3-O position
same,Degree of regiospecificity (3-O vs 7-O),"[3]; UGT1A9, substrate 35 μM",no regiospecificity
same,Hydroxyl positions glucuronidated,[4],"glucuronidated 3-O, 7-O and 4’-O"
same,Glucuronidation and regiospecificity across the 8 UGT isoforms,[5],5-O position was not significantly glucuronidated by any isoform
"O=c1cc(-c2ccccc2)oc2cc(O)cc(O)c12 [5,7DHF, 5,7-dihydroxyflavone]",Hydroxyl positions glucuronidated,[6],glucuronidated both 7-O and 5-O positions
